Where a name gives a salt, the structure may show the parent alone.
Key:
RAW264.7 cells [1] = assay: Inhibition of release of inflammatory mediators (TNF-α) in RAW264.7 cells induced by CpG DNA; format: cell-based; details: CpG DNA 10 μg/ml, salt 0, 50, 100, 200 μM, 4 h, ELISA, FIG. 4
Method: (§1) 18.1 Methods: RAW264.7 cells are diluted to 1×10^6/ml in DMEM culture medium, added into a 96-well cell culture plate (200 μl per well), and incubated at 37° C. in a 5% CO2 humidified incubator for 4 h, and then the supernatant is replaced with 200 μl of serum-free DMEM culture medium after cells attachment. Next, each well is added with CpG DNA (final concentration of 10 μg/ml ), and then added with one of the salts of kukoamine B (including kukoamine B malate, kukoamine B succinate, kukoamine B lactate, kukoamine B tartrate, kukoamine B methanesulfonate, kukoamine B p-toluenesulfonate, kukoamine B glutamate, kukoamine B acetate, kukoamine B hydrochlorate, and kukoamine B sulfate) to obtain the final concentration of 0, 50, 100, and 200 μM, respectively. The control group contains no CpG DNA. Then, the incubation goes on for 4 h. The supernatant is collected to measure the concentration of TNF-α according to the manufacturer's instructions of ELISA kit.

[2] = Affinity assay of salts of kukoamine B with lipid A (IAsys plus Affinity Sensor); format: binding; details: 1 mg in 1 ml PBS (0.01 M, pH 7.4), 5 μl added to cuvette with 45 μl PBS, immobilized lipid A, 3 min; curves in FIG. 1
Method: 15.1 Methods: The affinity assay is carried out according to the methods disclosed in the Chinese patent titled “Use of an active ingredient or active substance selected and isolated from traditional Chinese herbs in the preparation of drugs for treating sepsis” (Chinese patent Number ZL 200510070677.3) granted to the applicant, which mainly comprises the following steps:
(1) Lipid A is immobilized on the reacting surfaces of non-derivative cuvettes according to the instructions of immobilization of lipid in the manufacturer's instructions of IAsys plus Affinity Sensor. Wherein, the end of hydrophobic side chain of lipid A was immobilized on cuvette, and the hydrophilic end is floating outside, which act as target site of binding reaction;
(§2) (2) 1 mg of each of the salts, including kukoamine B hydrochlorate, kukoamine B hydrobromide, kukoamine B sulfate, kukoamine B phosphate, kukoamine B acetate, kukoamine B maleate, kukoamine B succinate, kukoamine B malate, kukoamine B lactate, kukoamine B tartrate, kukoamine B methanesulfonate, kukoamine B p-toluenesulfonate, kukoamine B glutamate, and kukoamine B aspartate, is fully dissolved by 1 ml of PBS solution (0.01 M, pH 7.4), respectively;
(3) 5 μl of each of the solution obtained in step (2) is added into the affinity sensor's cuvettes (containing 45 μl of PBS solution) previously immobilized with lipid A to carry out the reaction, respectively;
(4) The binding reaction is carried out for 3 min, and the binding curves are recorded;
(5) Each of the cuvettes is washed with 50 μl of PBS solution for 3 times, and dissociation curves are recorded;
(6) Each of the cuvettes is washed with 0.1 M HCl solution for 3 times, and the regeneration curves are recorded.

[3] = Neutralizing test on LPS in vitro (kinetic turbidimetric limulus test); format: biochemical; details: 20 μM solution mixed with equal volume of LPS 0.25 ng/ml, 37° C. 30 min, TAL reagent; FIG. 2
Method: 16.1 Methods: The neutralizing test is carried out according to the manufacturer's instructions of 32 Well Kinetic Tube Reader (ATi321-06) endotoxin detector, which mainly comprises the following steps:
as §2, with “(1) Each” for “(2) 1 mg of each”, “prepared into 20 μM” for “fully dissolved by 1 ml of PBS”, “with nonpyrogenic water,” for “(0.01 M, pH 7.4),”
(2) 100 μl of each of the solution obtained in step (1) is separately mixed with equal volume of LPS solution (0.25 ng/ml). At the same time, the control group is established, which is a mixed solution containing 100 μl of nonpyrogenic water and equal volume of LPS solution (0.25 ng/ml). The LPS group and control group are incubated at 37° C. for 30 min. Then, 100 μl of the reaction solutions of LPS group and control group are separately added into a detector tube containing 100 μl of TAL reagents, and LPS value of each group are detected by kinetic turbidimetric limulus test according to the manufacturer's instructions of 32 Well Kinetic Tube Reader (ATi321-06) Bacterial Endotoxin Detection system. The test of each concentration is repeated three times;

RAW264.7 cells [4] = assay: Inhibition of release of inflammatory mediators (TNF-α) in RAW264.7 cells induced by LPS; format: cell-based; details: LPS 100 ng/ml, salt 0, 50, 100, 200 μM, 4 h, ELISA, FIG. 3
Method: as §1, with “17.1” for “18.1”, “LPS” for “CpG DNA”, “100 ng/ml),” for “10 μg/ml ),”, “LPS.” for “CpG DNA.”

sepsis model of mice = assay: Protective effect in the sepsis model of mice (cecal ligation and puncture, CLP); format: in vivo, Balb/c mice; details: 7 days; for survival rate of mice: combination with antibiotic (ampicillin sodium-sulbactam sodium 80 mg/kg), salt 2.5 mg/kg through tail vein at 0-68 hours after surgery; for protective effect to the sepsis model of mice: salt 2.5 mg/kg tail vein combined with antibiotic, FIG. 5
Source text: 19.1 Methods: 120 Balb/c mice, each of 19-21 g, half of which being male and half female, are divided into six groups randomly, including control group, antibiotic group, antibiotic and kukoamine B hydrochlorate group, antibiotic and kukoamine B methanesulfonate group, antibiotic and kukoamine B p-toluenesulfonate group, and antibiotic and kukoamine B benzene sulfonate group. Each group contains 20 mice. The mice are narcotized with anesthesia machine; the vapor concentration of isoflurane is 5%; the pressure of the mixed gas is 1 MPa; anesthesia time is about 5 min. The mice model are setup by cecal ligation and puncture (CLP) comprising the following steps: the mice are maintained in supine position, and the abdomen skin is disinfected with iodophor; the skin, muscular layer and peritoneum below the midpoint of linea alba 0.3 cm are cut open with ophthalmic scissors (the length of the incisions is 0.8 CM); the muscular layer is picked up with ophthalmic forceps, and the enterocoelia is explored with ophthalmic forceps; the cecum is pulled out and ligated with No. 4 suture at 0.5 CM from the end of cecum; then, the cecum is vertically punctured with No. 12 needle, and squeezed to extrude contents; finally, the cecum is put back and the incision is stitched. Thereafter, the mice in control group are injected with 0.2 ml of sterile saline through tail vein; the mice in antibiotic group are injected with antibiotic (ampicillin sodium-sulbactam sodium) at a dosage of 80 mg/kg body weight through tail vein at 4 hours after surgery; the mice in other four groups are separately injected with kukoamine B hydrochlorate, kukoamine B methanesulfonate, kukoamine B p-toluenesulfonate and kukoamine B benzene sulfonate at a dosage of 2.5 mg/kg body weight at a time through tail vein at 0, 4, 12, 20, 28, 36, 44, 52, 60 and 68 hours after surgery.

Compound	inhibition of the release of TNF-α induced by CpG DNA (RAW264.7 cells [1])	binding reaction with lipid A [2]	neutralization of LPS in vitro [3]	inhibition of the release of TNF-α induced by LPS (RAW264.7 cells [4])	survival rate of mice (sepsis model of mice)	protective effect to the sepsis model of mice (sepsis model of mice)	comparison of protective effect among the salts (sepsis model of mice; four salts compared)
CC(=O)O.NCCCN(CCCCNCCCNC(=O)CCc1ccc(O)c(O)c1)C(=O)CCc1ccc(O)c(O)c1 [kukoamine B acetate]	can inhibit the release of TNF-α	can bind with lipid A	can neutralize LPS in vitro	can inhibit the release of TNF-α			
NCCCN(CCCCNCCCNC(=O)CCc1ccc(O)c(O)c1)C(=O)CCc1ccc(O)c(O)c1 [kukoamine B hydrobromide]		can bind with lipid A	can neutralize LPS in vitro				
NCCCN(CCCCNCCCNC(=O)CCc1ccc(O)c(O)c1)C(=O)CCc1ccc(O)c(O)c1 [kukoamine B hydrochlorate]					20%	have protective effects to the sepsis model of mice	
CC(O)C(=O)O.NCCCN(CCCCNCCCNC(=O)CCc1ccc(O)c(O)c1)C(=O)CCc1ccc(O)c(O)c1 [kukoamine B lactate]	can inhibit the release of TNF-α	can bind with lipid A	can neutralize LPS in vitro	can inhibit the release of TNF-α			
NCCCN(CCCCNCCCNC(=O)CCc1ccc(O)c(O)c1)C(=O)CCc1ccc(O)c(O)c1 [kukoamine B malate]	can inhibit the release of TNF-α			can inhibit the release of TNF-α			
CS(=O)(=O)O.NCCCN(CCCCNCCCNC(=O)CCc1ccc(O)c(O)c1)C(=O)CCc1ccc(O)c(O)c1 [kukoamine B methanesulfonate]	can inhibit the release of TNF-α	can bind with lipid A	can neutralize LPS in vitro	can inhibit the release of TNF-α	50%	have protective effects to the sepsis model of mice	has the best effect
Cc1ccc(S(=O)(=O)O)cc1.NCCCN(CCCCNCCCNC(=O)CCc1ccc(O)c(O)c1)C(=O)CCc1ccc(O)c(O)c1 [kukoamine B p-toluenesulfonate]	can inhibit the release of TNF-α	can bind with lipid A	can neutralize LPS in vitro	can inhibit the release of TNF-α	20%	have protective effects to the sepsis model of mice	
kukoamine B benzene sulfonate					30%	have protective effects to the sepsis model of mice	
